Results on 3 molecules are retold here after patent US20080300222A1, “Phosphoantigen Salts Of Organic Bases And Methods For Their Crystallization” (Innate Pharma, priority 2005, published 2008).

Series [1] is described as follows: DVS hygroscopicity and moisture measurement, first procedure. Type of series: physicochemical. As for the experimental part: Moisture sorption isotherms of amorphous BrHPP was obtained by using an automated water sorption analyzer. Temperature of analysis was 20° C. For each measurement, precisely ca. 25 mg of the sample were weighed in a pan beforehand allowed for the tare, then placed in the analyzer.
After a stabilization stage at 0% R.H. (R.H. stands for Relative Humidity), mass variations were recorded while R.H. was increased by steps of 20% R.H. The upper limit was adjusted to 80% R.H. This second stage was afterward followed by a stepped decrease of R.H. down to 0% R.H. This overall procedure constitutes a ‘Full cycle’ analysis. Several successive full cycles can be applied to the same sample.

Series [2] can be described thus: Thermal stability by DSC and TG/DSC analysis.
Method: DSC analyses were carried out by using a SETARAM 141 Differential Scanning Calorimeter (SETARAM, 69300 Caluire, France). No purge gas was used. The reference material was an empty aluminum pan without cap. The samples were weighed in open aluminum pans, then placed in the analyzer. The analyses were performed within various temperature ranges using a 2°.min^−1 heating rate. SETARAM ACQUISITION Module software (v. 1.4) was used as control software and data processing was performed by using the SETARAM DATA PROCESSING Module software (v. 1.39).
TG/DSC measurements were carried out by using a NETZSCH STA 449C Jupiter Thermogravimetric Analyzer (NETZSCH, D-95100 Selb, Germany) equipped with a low temperature furnace. The purge gas used was helium (gas flow=60 mL/min) and the reference material was an empty aluminum pan without cap. The samples were weighed in open aluminum pans, then placed in the analyzer. The analyses were performed within various temperature ranges using a 2°.min^−1 heating rate. PROTEUS software was used for the acquisition and data processing (v. 4.7.0).
Series [3] can be described thus: Chemical stability on storage, evaluated by HPAEC analysis.
A short description of series [4]: DVS hygroscopicity and moisture measurement, second procedure. The class given is physicochemical. Particulars: 22° C. The procedure:
Moisture sorption isotherms of the crystalline phases were obtained by using a DVS-1 automated water sorption analyzer (Surface Measurements Systems, Alperton, Middlesex, United Kingdom). The reference material was an empty glass pan and the total gas flow was 200 sccm·min^−1 (Standard Cubic Centimeters per minute). Temperature of analysis was 22° C. For each measurement, precisely ca. 15 mg of the sample were weighed in a glass pan beforehand allowed for the tare, then placed in the analyzer.
As a first stage, dry nitrogen (0% R.H) was applied until constant weight of the sample in order to eliminate adsorbed or absorbed water (potential dehydration). Then, mass variations were recorded while R.H. was increased by steps of 10% R.H. The automated analyzer was allowed to start the following step as soon as the mass variation of the sample was less than 5.10^−4 mg·min^−1. The upper limit was adjusted below the deliquescence of the compound and never exceeded 98% R.H. This second stage was afterward followed by a stepped decrease of R.H. down to 0% R.H. This overall procedure constitutes a ‘Full cycle’ analysis. Several successive full cycles can be applied to the same sample.
DVSWin (v 2.18) was used as control and data collection software whereas data processing was performed by using DVS Standard Analysis Suite (v 4.3).
Further parameters used in DVS procedures are as follows: • Protocole Dynamic Vapour Sorption/Appareil ‘Surface Measurements Systems • Automated Water Sorption Analyser’/model: DVS-1 • Analysis method: • step mode, • Temperature: […] • number of steps, • step dm/dt<0.0005 (mg/min) • First stage R.H.=0% • Last Stage R.H.=98% • Half cycle or Full cycle (or several successive full cycles) • dm/dt window: 5 • Minimum Stage: 20 min • Maximum Stage: 120 min • Total Gaz Flow: 200 • Nitrogen: 200 Bars, H2O<3 ppm, O2<2 ppm, Ref. Azote N50 B50*0 • Initial sample weight: • Software—data collection and data processing • DVSWin v2.18 (control software), • DVS Standard Analysis Suite v4.3 (analysis software).]

Structures can show the parent of a compound that is named as a salt.

For `CC(O)(CBr)CCOP(=O)(O)OP(=O)(O)O` (racemic) [BrHPP sodium salt, reference compound], the “sensitivity to atmospheric water” value in series [1] (even for low R.H.) was “very sensitive to atmospheric water”. The deliquescence result in series [1] (high relative humidities (≧80% R.H.), 20° C., mass not stabilized after 2300 minutes) is recorded as “becomes deliquescent”. Also, the “thermal behaviour in TG/DSC analysis” value in series [2] (fluctuations of DSC signal and continuous mass loss, even for temperatures close to ambient) is given as “undergoes chemical degradations”. Moreover, in series [3] (3 months, room temperature (about 25° C.), in contact with ambient atmosphere), the degradation on storage is reported as 50%.

For the molecule `CC(O)(CBr)CCOP(=O)(O)OP(=O)(O)O` (racemic) [BrHPP benzathin salt (Rac)-Mix-I, 3-(bromomethyl)-3-butanol-1-yl diphosphoric acid, N,N′-dibenzylethylenediammonium salts], the “reversible and reproducible mass variation, (de)hydration (Rac)-Mix-I / (Rac)-Mix-III” value in series [4] (R.H. in the range of 50%-70%) is 6.1%. The cumulated mass variations was below 0.4% in series [4] (between 0% and 50% R.H.); below 0.2% in series [4] (high relative humidity (up to 90%)). Also, the “temperature of the fusion-degradation event (thermal stability)” value in series [2] (DSC, non solvated crystalline form) is “above 146 °C”.

With `CC(O)(CBr)CCOP(=O)(O)OP(=O)(O)O` (stereo not shown) [3-(bromomethyl)-3-butanol-1-yl diphosphoric acid, diquininium salts], the “anionic purity of the sample over the storage period” value in series [3] (glass vial, room temperature (20-25° C.), ambient atmosphere (50-70% RH), at least 5 months, HPAEC) is listed as 99.5%±0.2%. The “period over which the compound was found to be stable” value in series [3] (stored in a glass vial at room temperature (20-25° C.) and ambient atmosphere (50-70% Relative Humidity)) is recorded as “at least 5 months”.
